Earlier results, collected in patent publication US8690839B2, “Devices for delivering a medicament and connector for same” (priority 2008, dated 2014).

Experiments:
[1] = for onset (in words): in vivo
[2] = in vivo

Row | SMILES | onset time ([1]; topical use) | toxic dose [2] | onset (in words) [1]
1 | CCOC(=O)c1ccc(N)cc1 [Benzocaine, benzocaine] | about 30 seconds | > 200 mg | –
2 | CCCN1CCCC[C@H]1C(=O)Nc1c(C)cccc1C [Ropivacaine, ropivacaine] | – | about 175 mg | slow onset
3 | CCCCNc1ccc(C(=O)OCCN(C)C)cc1 [Tetracaine, tetracaine] | – | – | fast onset
